Measurements published in patent publication US20100130544A1, “USE OF PARASYM[…] ENHANCE AND […] CELL DIFFERENTIATION, RELATED METHODS AND COMPOSITIONS” (UNIVERSITA' DEGLI STUDI DI TORINO, priority 2006, published 2010).

Tests used:
[1] = tested on: Human mesenchymal pluripotent stem cells (MSCs); assay: Phenotypic analysis (Western blotting, immunofluorescence) of mesenchymal cells stimulated towards hepatocytic type + parasympatholytic; format: cell-based; conditions: Mesenchymal cells Hepatocytic type + parasympath. (HGF medium + 0.2 μg/mL scopolamine)
Text: Human mesenchymal pluripotent stem cells (MSCs, mesenchymal Stem Cells) have been extracted from samples of bone marrow (BM) taken from the femoral head (spongy tissue and bone marrow) during complete hip-replacement surgery. The nucleated cells have been separated by means of a density gradient (Ficoll-Paque, Amersham) and resuspended in low-glucose Dulbecco's modified Eagle's medium (DMEM-LG, Gibco, Grand Island, N.Y., USA) supplemented with 10% foetal bovine serum (FBS, Sigma), 10 U/mL penicillin G, and 40 μg/mL gentamycin. After 24 hours in culture, the medium, along with any cells in suspension, has been removed by aspiration and fresh medium added onto the adhered cells. The cells have been grown in 75 cm^2 flasks in an incubator with 5% CO2 at a temperature of 37° C. When the cells reach 80% confluence, they are detached using trypsin-EDTA (5 minutes incubation at 37° C. followed by the addition of 5 mL of pure FBS, and the detached cells in suspension are harvested), washed twice by centrifugation at 160 g for 7 minutes at 37° C. in DMEM-LG medium (Gibco; Grand Island, N.Y., USA) free of any supplements. The cells in the pellets thus obtained are resuspended at a concentration of 1×10^6 in fresh DMEM-LG medium (Gibco; Grand Island, N.Y., USA) supplemented with 10% foetal bovine serum (FBS, Sigma), 10 U/mL penicillin G, and 40 μg/mL gentamycin. The cells are reseeded after 1:4 dilution (final concentration 2.5×10^4). In this study, cells after the third passage in continuous culture have been used.
As described above in detail, every seventh day of incubation samples of all confluent MSC and SynC cells have been subjected to immunofluorescence testing of samples adhered onto sell culture slides.
Furthermore, every seventh day of incubation, samples of the same cells have been detached using trypsin-EDTA (5 minutes at a temperature of 37° C. followed by the addition of 5 mL of pure FBS and the detached cells in suspension harvested) and washed twice by centrifugation at 160 g for 7 minutes at 37° C. in DMEM-LG (Gibco; Grand Island, N.Y., USA) without any supplements.
Western blotting first makes use of denaturing electrophoresis (SDS-PAGE) in order to separate the various proteins according to molecular weight, by cancelling out the charges on the amino acids which might influence migration. The cell samples, suspended in lysis buffer (1% SDS, 30 mM Tris pH 6.8, 5% glycerol) to which protease inhibitors (Protease Inhibitor Cocktail, Calbiochem, San Diego, Calif., USA) have been added, have been incubated for 30 minutes at 4° C. The lysates thus obtained have been centrifuged at 12,000 rpm for 20 minutes at 4° C. and the supernatants collected; the protein concentrations of the samples have been measured using the Bio-Rad method (Benchmark Plus assay, Bio-Rad). Prior to electrophoresis, the samples have been boiled for 5 minutes in the presence of beta-mercaptoethanol and bromophenol blue. The samples have been subjected to electrophoresis on a 12% gel (SDS-PAGE) and then transferred onto a PVDF membrane (Perkin Elmer Inc.). […]

THP-1 cells (PSC-THP1) = assay: Phenotypic analysis (Western blotting, immunofluorescence) of PSC-THP1 stimulated towards hepatocytic type + parasympatholytic; format: cell-based, human; parameters: key to expression of CD34: −−−−− = absence of any fluorescence; + = 1-5 fluorescent cells per optical field; ++ = 6-10 fluorescent cells per optical field; +++ = 10-20 fluorescent cells per optical field; ++++ = 20-50 fluorescent cells per optical field; +++++ > 50 fluorescent cells per optical field; conditions: PSC-THP1 Hepatocytic type + parasympath. (HGF medium + 0.2 μg/mL scopolamine)
Method: (§1) Furthermore, samples of the same cells, taken every seventh day of incubation, have been incubated for 5-8 minutes with 2% lidocaine (Sigma Aldrich, Milan, Italy) in PBS and the solution thus obtained harvested, as described in the bibliography.
(§2) Western blotting first makes use of denaturing electrophoresis (SDS-PAGE) in order to separate the various proteins according to molecular weight, by cancelling out the charges on the amino acids which might influence migration. The cell samples, suspended in lysis buffer (1% SDS, 30 mM Tris pH 6.8, 5% glycerol) to which protease inhibitors (Protease Inhibitor Cocktail, Calbiochem, San Diego, Calif., USA) have been added, have been incubated for 30 minutes at 4° C. The lysates thus obtained have been centrifuged at 12,000 rpm for 20 minutes at 4° C. and the supernatants collected; the protein concentrations of the samples have been measured using the Bio-Rad method (Benchmark Plus assay, Bio-Rad). Prior to electrophoresis, the samples have been boiled for 5 minutes in the presence of beta-mercaptoethanol and bromophenol blue. The samples have been subjected to electrophoresis on a 12% gel (SDS-PAGE) and then transferred onto a PVDF membrane (Perkin Elmer Inc.). The membranes have been saturated with […] at room temperature and subsequently incubated overnight, at 4° C., with the following primary antibodies diluted 1:500 in PBS with 5% skimmed milk powder: anti-CD 34 (Santa Cruz Biotechnology, CA, USA), anti-CD 14 (Santa Cruz Biotechnology, CA, USA), anti-CD 45 (Santa Cruz Biotechnology, CA, USA), anti-CD 71 (Santa Cruz Biotechnology, CA, USA), anti-CD 90 (Santa Cruz Biotechnology, CA, USA), anti-CD 29 (Santa Cruz Biotechnology, CA, USA), anti-CD 105 (Santa Cruz Biotechnology, CA, USA), anti CD 117/c-KIT (Santa Cruz Biotechnology, CA, USA), anti c-MET (Santa Cruz Biotechnology, CA, USA), anti cytokeratin 7 (Santa Cruz Biotechnology, CA, USA), anti cytokeratin 8 (Santa Cruz Biotechnology, CA, USA), anti cytokeratin 18 (Santa Cruz Biotechnology, CA, USA), anti cytokeratin 19 (Santa Cruz Biotechnology, CA, USA), anti cytokeratin 7/17 (Santa Cruz Biotechnology, CA, USA), anti albumin (Rockland Immunochemicals, PA, USA), anti alpha-fetoprotein (Monosan Europa, Netherlands). After five washes, the membranes have been incubated with the corresponding secondary antibodies (1:1000) conjugated to horseradish peroxidase (HRP, SantaCruz Biotechnologies Inc., Santa Cruz, Calif., USA) for 1 hour at room temperature.
(§3) Cells in suspension have been incubated with […] MitoTracker Red for 10 minutes at 37° C. […] After three washes in PBS, the cells have been resuspended in a solution of PBS and 0.1% Triton for 1 hour at 4° C. After three washes in PBS, the cells have been seeded onto slide covers and the liquid allowed to evaporate-off in air. The cells have been blocked with 20% normal goat serum for one hour, then incubated for 30 minutes with the following fluorescein isothiocyanate (FITC) conjugated anti-human monoclonal antibodies: anti-CD 34 (Santa Cruz Biotechnology, CA, USA), anti-CD 14 (Santa Cruz Biotechnology, CA, USA), anti-CD 45 (Santa Cruz Biotechnology, CA, USA), anti-CD 71 (Santa Cruz Biotechnology, CA, USA), anti-CD 90 (Santa Cruz Biotechnology, CA, USA), anti-CD 29 (Santa Cruz Biotechnology, CA, USA), anti-CD 105 (Santa Cruz Biotechnology, CA, USA), anti CD 117/c-KIT (Santa Cruz Biotechnology, CA, USA), anti c-KIT (Santa Cruz Biotechnology, CA, USA), anti c-MET (Santa Cruz Biotechnology, CA, USA), anti cytokeratin 7 (Santa Cruz Biotechnology, CA, USA), anti cytokeratin 8 (Santa Cruz Biotechnology, CA, USA), anti cytokeratin 18 (Santa Cruz Biotechnology, CA, USA), anti cytokeratin 19 (Santa Cruz Biotechnology, CA, USA), anti cytokeratin 7/17 (Santa Cruz Biotechnology, CA, USA), anti albumin (Rockland Immunochemicals, PA, USA), anti alpha-fetoprotein (Monosan Europa, Netherlands). […]

[2] = tested on: peripheral blood monocytes; assay: Phenotypic analysis (Western blotting, immunofluorescence) of monocytes stimulated towards hepatocytic type + parasympatholytic; format: cell-based, human; parameters: key to expression of CD34: −−−−− = absence of any fluorescence; + = 1-5 fluorescent cells per optical field; ++ = 6-10 fluorescent cells per optical field; +++ = 10-20 fluorescent cells per optical field; ++++ = 20-50 fluorescent cells per optical field; +++++ > 50 fluorescent cells per optical field; conditions: monocytes Hepatocytic type + parasympath. (HGF medium + 0.2 μg/mL scopolamine)
Method: as §1, §2, §3

Synovial cells (SynCs) = assay: Phenotypic analysis (Western blotting, immunofluorescence) of synovial cells stimulated towards hepatocytic type + parasympatholytic; format: cell-based, human; conditions: Synovial cells Hepatocytic type + parasympath. (HGF medium + 0.2 μg/mL scopolamine)
Method: Synovial cells (SynCs) have been obtained from patients during exeresis and curettage of the synovial membrane inside the femoral-tibial joint cavity. Fresh synovial tissue sections have been disaggregated in collagenase (10 μg per mL of medium, Sigma) for two hours at 37° C. The pellet, washed twice in DMEM-LG (Gibco; Grand Island, N.Y., USA), free of any supplements, by centrifugation at 160 g for 10 minutes and then resuspended in complete low-glucose Dulbecco's modified Eagle's medium ([DMEM-LG] GIBCO; Grand Island, N.Y., USA) supplemented with 10% foetal bovine serum ([FBS] Sigma), 10 U/mL penicillin G, and 40 μg/mL gentamycin, is finally seeded into 75 cm^2 flasks and incubated in 5% CO2 at a temperature of 37° C. After 24 hours, the medium, along with any cells still in suspension, has been aspirated off and fresh medium (DMEM-LG, Gibco; Grand Island, N.Y., USA, supplemented with 10% FBS, Sigma, 10 U/mL penicillin G, and 40 μg/mL gentamycin) has been added over the adhered cells. The cells have been grown in 75 cm^2 flasks in an incubator with 5% CO2 at a temperature of 37° C. When the cells reach 80% confluence, they are detached using trypsin-EDTA (5 minutes incubation at 37° C. followed by the addition of 5 mL of pure FBS, and the detached cells in suspension are harvested), washed twice by centrifugation at 160 g for 7 minutes at 37° C. in DMEM-LG medium (Gibco; Grand Island, N.Y., USA) free of any supplements. The cells in the pellets thus obtained are resuspended at a concentration of 1×10^6 in fresh DMEM-LG medium (Gibco; Grand Island, N.Y., USA) supplemented with 10% foetal bovine serum ([FBS] Sigma), 10 U/mL penicillin G, and 40 μg/mL gentamycin. The cells have been reseeded after 1:4 dilution (final concentration 2.5×10^4). In this study, cells after the second passage in continuous culture have been used.
As described above in detail, every seventh day of incubation samples of all confluent MSC and SynC cells have been subjected to immunofluorescence testing of samples adhered onto sell culture slides. […]
Western blotting first makes use of denaturing electrophoresis (SDS-PAGE) in order to separate the various proteins according to molecular weight, by cancelling out the charges on the amino acids which might influence migration. […] The lysates thus obtained have been centrifuged at 12,000 rpm for 20 minutes at 4° C. and the supernatants collected; the protein concentrations of the samples have been measured using the Bio-Rad method (Benchmark Plus assay, Bio-Rad). […]

CN1[C@@H]2C[C@@H](OC(=O)[C@H](CO)c3ccccc3)C[C@H]1[C@@H]1O[C@@H]12 [scopolamine, [7(S)-(1α,2β,4β,5α,7β)]-α-(hydroxymethyl)acid benzenacetic-9-methyl-3-oxa-9-azatricyclo[3.3.1.02,4]non-7-yl-ester]
expression of CD29 [1]: + (+ = 1-5 fluorescent cells per optical field) | expression of CD71 [1]: ++ (++ = 6-10 fluorescent cells per optical field) | expression of CD90 [1]: + (+ = 1-5 fluorescent cells per optical field) | expression of CD105 [1]: + (+ = 1-5 fluorescent cells per optical field) | expression of Human albumin [1]: ++ (++ = 6-10 fluorescent cells per optical field) | expression of alpha-fetoprotein [1]: + (+ = 1-5 fluorescent cells per optical field) | expression of c-KIT [1]: + (+ = 1-5 fluorescent cells per optical field) | expression of CD14 (THP-1 cells (PSC-THP1)): + (+ = 1-5 fluorescent cells per optical field) | expression of CD34 (THP-1 cells (PSC-THP1)): −−−−− | expression of Cytokeratin 7 (THP-1 cells (PSC-THP1)): +++++ (+++++ > 50 fluorescent cells per optical field) | expression of Cytokeratin 8 (THP-1 cells (PSC-THP1)): ++++ (++++ = 20-50 fluorescent cells per optical field) | expression of Cytokeratin 18 (THP-1 cells (PSC-THP1)): +++ (+++ = 10-20 fluorescent cells per optical field) | expression of Cytokeratin 19 (THP-1 cells (PSC-THP1)): +++++ (+++++ > 50 fluorescent cells per optical field) | expression of Cytokeratins 7/17 (THP-1 cells (PSC-THP1)): ++++ (++++ = 20-50 fluorescent cells per optical field) | expression of Human albumin (THP-1 cells (PSC-THP1)): +++++ (+++++ > 50 fluorescent cells per optical field) | expression of alpha-fetoprotein (THP-1 cells (PSC-THP1)): ++ (++ = 6-10 fluorescent cells per optical field) | expression of c-KIT (THP-1 cells (PSC-THP1)): + (+ = 1-5 fluorescent cells per optical field) | expression of c-Met (THP-1 cells (PSC-THP1)): ++ (++ = 6-10 fluorescent cells per optical field) | expression of CD14 [2]: + (+ = 1-5 fluorescent cells per optical field) | expression of CD34 [2]: −−−−− | expression of Cytokeratin 7 [2]: +++++ (+++++ > 50 fluorescent cells per optical field) | expression of Cytokeratin 8 [2]: ++++ (++++ = 20-50 fluorescent cells per optical field) | expression of Cytokeratin 18 [2]: +++ (+++ = 10-20 fluorescent cells per optical field) | expression of Cytokeratin 19 [2]: +++++ (+++++ > 50 fluorescent cells per optical field) | expression of Cytokeratins 7/17 [2]: ++++ (++++ = 20-50 fluorescent cells per optical field) | expression of Human albumin [2]: +++++ (+++++ > 50 fluorescent cells per optical field) | expression of alpha-fetoprotein [2]: ++ (++ = 6-10 fluorescent cells per optical field) | expression of c-KIT [2]: + (+ = 1-5 fluorescent cells per optical field) | expression of c-Met [2]: ++ (++ = 6-10 fluorescent cells per optical field) | expression of CD71 (Synovial cells (SynCs)): ++ (++ = 6-10 fluorescent cells per optical field) | expression of Human albumin (Synovial cells (SynCs)): +++ (+++ = 10-20 fluorescent cells per optical field) | expression of alpha-fetoprotein (Synovial cells (SynCs)): + (+ = 1-5 fluorescent cells per optical field) | expression of c-KIT (Synovial cells (SynCs)): + (+ = 1-5 fluorescent cells per optical field)
